The values that follow come from patent US7220563B2 (priority 2002, dated 2007).

The assay has as its system recombinant GAO. The assay is classed as biochemical.

Consider iron, for which the “effect on activation of the recombinant GAO” value (“effect on activation” below) is “did not affect activation”. Same read-out and setting: the same measure for manganese: “did not affect activation”. On to `O=S(=O)([O-])[O-].[Cu+2]` [CuSO4, copper sulfate], for which the “concentration sufficient to activate recombinant GAO” value was found to be 0.1 mM, the “effect on GAO activity” value is reported as “slightly inhibited” and the “preferred concentration for activating crude enzyme solution” value amounted to 0.4 mM. As to cobalt, the “effect on activation” value is on record as “did not affect activation”. As for `O=C(O)CN(CCN(CC(=O)O)CC(=O)O)CC(=O)O` [EDTA], the “effect on activation” value is given as “did not affect activation”. For nickel, the “effect on activation” value was “did not affect activation”.
